Usually GI50 stands for the concentration that inhibits growth by half.

Among the data in patent EP4563571A1, “PRMT5 INHIBITORS” (Beijing Earthwise Technology Co., Ltd., priority 2022, dated 2024) are GI50 values, retold here.

The first experiment relates to HCT116^MTAP Deletion cells. In words: Anti-proliferation assay on cells (Cell-Titer Glo, 10 days). In kind it is cell-based. As to conditions: 240 h, HCT116^MTAP Deletion cells, 10 days incubation, CTG readout; read-out: HCT116^MTAP Deletion GI50. As for the experimental part:
HCT116^MTAP Deletion cells were from Pharmaron (China); HCT116 cells were from ATCC; McCoy's 5A medium was purchased from Invitrogen (USA); penicillin-streptomycin and fetal bovine serum were purchased from Gibco (USA); a 384-well plate was purchased from PerkinElmer (USA); and Cell-Titer Glo reagent was purchased from Promega (USA).
Compound dissolution: All the compounds were dissolved in dimethyl sulfoxide (DMSO) and then stored. The compounds were stored at room temperature in a dry condition for 3 months for short term storage or at -20 °C for long term storage.
Cell culture and passaging
The cells were cultured strictly in accordance with ATCC requirements. The cell culture medium (McCoy's 5A medium + 10% fetal bovine serum + 1% penicillin + streptomycin) was transferred to a 15 mL centrifuge tube and centrifuged at 1000 rpm for 5 min. The supernatant was removed. The cells were resuspended with complete culture medium, inoculated into a culture dish at the required density, and cultured in an incubator at 37 °C, 95% humid air, and 5% carbon dioxide. The culture medium was replenished or the cells were passaged every 2-3 days depending on the cell growth condition.
Cell proliferation activity assay
When the confluency of cells in the culture dish reached about 90%, the cells were washed twice with PBS, and then treated with trypsin to become single cells. The cells were counted, and 40µl of the cells was inoculated into each well of a 384-well plate (50 cells/well). The plate was equilibrated at 37 °C and 5% carbon dioxide for 10 to 15 minutes. The compounds were injected into the 384-well plate using Echo550, and positive control and negative control (0.1% DMSO) were set up. Each compound was subjected to a 3-fold dilution, resulting in 10 concentration gradients, in duplicate, and the content of DMSO was 0.1%. The 384-well plate was incubated in a cell culture incubator for 10 days.
Then, 40 µl of cell proliferation assay reagent (CTG) was added to the 384-well plate, and the plate was shaken to mix well. Then, the 384-well plate was incubated at 37 °C and 5% carbon dioxide in the dark for 30 minutes. The data were read using the Envision multifunctional microplate reader. […] According to the different drug concentrations and their corresponding inhibition rates, the GI50 curve was drawn using GraphPad 8.0 software. The data were analyzed, and the final IC50 value was obtained.
Take `CCC(C)N(Cc1cc(C(F)(F)F)ccn1)C(=O)C(=O)Nc1cnc(N)c(C)c1` (stereo not drawn) [Example 105]: the GI50 fell in the range of 0.1 to 1 µM.
`Cc1cc(NC(=O)C(=O)N(CC(C)C)c2cccc(C(F)(F)F)c2)cnc1N` [Example 107]: the GI50 is more than 10 µM.
Same read-out and setting: then `CN(C(=O)C(=O)Nc1cnc(N)c2c1cnn2C)C1COCc2cc(C3=CCCOC3)ccc21` (stereo not drawn) [Example 108], with 0.01 to 0.1 µM; and `[2H]C([2H])([2H])N(C(=O)C(=O)Nc1cnc(N)c2c1cnn2C)C1COCc2cc(C(F)(F)F)ccc21` (stereo not drawn) [Example 109], with less than 0.01 µM; and `CN(C(=O)C(=O)Nc1cnc(N)c2c1cnn2C)C1COCc2cc(C(F)(F)F)cnc21` (stereo not drawn) [Example 114], with 0.1 to 1 µM.
Same read-out and setting: then `CN(C(=O)C(=O)Nc1cnc(N)c2c1cnn2C)C1COCc2cc(OC(F)(F)F)ccc21` (stereo not drawn) [Example 115], with less than 0.01 µM; and `CC(C)N(C(=O)C(=O)Nc1cnc(N)c2c1cnn2C)C1COc2cc(C(F)(F)F)ccc21` (stereo not drawn) [Example 116], with 0.01 to 0.1 µM; and `CCCN(C(=O)C(=O)Nc1cnc(N)c2c1cnn2C)C1COc2cc(C(F)(F)F)ccc21` (stereo not drawn) [Example 117], with 0.01 to 0.1 µM.
As for `Cn1ncc2c(NC(=O)C(=O)N(C3CC3)C3COc4cc(C(F)(F)F)ccc43)cnc(N)c21` (stereo not drawn) [Example 118], the GI50 is less than 0.01 µM.
For the compound `Cn1ncc2c(NC(=O)C(=O)NC3COCc4cc(C(F)(F)F)ccc43)cnc(N)c21` (stereo not drawn) [Example 119], the GI50 was 1 to 10 µM.
Regarding `CN(C(=O)C(=O)Nc1cnc(N)c2c1cnn2C)C1CCOCC1` [Example 120], the GI50 was in the range of 1 to 10 µM.
Same read-out and setting: then `CCN(C(=O)C(=O)Nc1cnc(N)c2c1cnn2C)C1COc2cc(C(F)(F)F)ccc21` (stereo not drawn) [Example 121], with less than 0.01 µM.
Still for that read-out and setting: with `CC(C)CN(C(=O)C(=O)Nc1cnc(N)c2c1cnn2C)C1COc2cc(C(F)(F)F)ccc21` (stereo not drawn) [Example 122] the figure was 0.01 to 0.1 µM.
Still for that read-out and setting: with `Cn1ncc2c(NC(=O)C(=O)N(CC3CC3)C3COc4cc(C(F)(F)F)ccc43)cnc(N)c21` (stereo not drawn) [Example 123] the figure was less than 0.01 µM; with `CCC(C)N(Cc1ccc(C2=CCN(C(=O)OC)CC2)cn1)C(=O)C(=O)Nc1cnc(N)c(C)c1` (stereo not drawn) [Example 125-P1], less than 0.01 µM; with `CN(C(=O)C(=O)Nc1cnc(N)c2c1cnn2C)C1CCOC1` (stereo not drawn) [Example 126], 1 to 10 µM.
Consider `CN(C(=O)C(=O)Nc1cnc(N)c2c1cnn2C)C1CCOc2cc(C(F)(F)F)ccc21` (stereo not drawn) [Example 127], for which the GI50 fell in the range of 0.01 to 0.1 µM.
Still for that read-out and setting: then `CC(C)Oc1ccc2c(c1)COCC2N(C)C(=O)C(=O)Nc1cnc(N)c2c1cnn2C` (stereo not drawn) [Example 128], with 0.01 to 0.1 µM; and `CN(C(=O)C(=O)Nc1cnc(N)c2c1cnn2C)C1CCCOC1` (stereo not drawn) [Example 129], with 1 to 10 µM; and `CN(C(=O)C(=O)Nc1cnc(N)c2c1cnn2C)C1CCN(c2ccccc2)C1` (stereo not drawn) [Example 130], with 0.1 to 1 µM.
Same read-out and setting: with `CCC(C)N(C(=O)C(=O)Nc1cnc(N)c2c1cnn2C)C1COCc2cc(C(F)(F)F)ccc21` (stereo not drawn) [Example 131] the figure was 0.01 to 0.1 µM; with `CN(C(=O)C(=O)Nc1cnc(N)c2c1cnn2C)C1CCCN(c2ccccc2)C1` (stereo not drawn) [Example 133], 1 to 10 µM; with `CN(C(=O)C(=O)Nc1cnc(N)c2c1cnn2C)C1COCc2ccc(C(F)(F)F)cc21` (stereo not drawn) [Example 134], 0.01 to 0.1 µM.
On the same count and under the same terms, with `CN(C(=O)C(=O)Nc1cnc(N)c2c1cnn2C)C1CCc2cc(C(F)(F)F)ccc21` (stereo not drawn) [Example 136] the figure was 0.01 to 0.1 µM; with `CN1CCC(c2ccc3c(c2)COCC3N(C)C(=O)C(=O)Nc2cnc(N)c3c2cnn3C)CC1` (stereo not drawn) [Example 139], 0.01 to 0.1 µM; with `CN(C(=O)C(=O)Nc1cnc(N)c2c1cnn2C)C1COc2cc(-c3cnn(C)c3)ccc21` (stereo not drawn) [Example 140-P1], less than 0.01 µM.
For `COc1ncc(NC(=O)C(=O)N(C)C2COc3cc(C(F)(F)F)ccc32)cc1C(N)=O` (stereo not drawn) [Example 142], the GI50 was 1 to 10 µM.
Still for that read-out and setting: with `COc1ncc(NC(=O)C(=O)N(C)C2COCc3cc(C(F)(F)F)ccc32)cc1C(N)=O` (stereo not drawn) [Example 143] the figure was 0.1 to 1 µM.
On the same count and under the same terms, then `CN(C(=O)C(=O)Nc1cnc(N)c2c1cnn2C)C1COCc2cc(C3CCOCC3)ccc21` (stereo not drawn) [Example 144], with 0.01 to 0.1 µM; and `Cc1cn(-c2ccc3c(c2)COCC3N(C)C(=O)C(=O)Nc2cnc(N)c3c2cnn3C)cn1` (stereo not drawn) [Example 145], with 0.01 to 0.1 µM.
As for `CN(C(=O)C(=O)Nc1cnc(N)c2c1cnn2C)C1COC(C)(C)c2cc(C(F)(F)F)ccc21` (stereo not drawn) [Example 147], the GI50 was in the range of 0.01 to 0.1 µM.
Consider `CN(C(=O)C(=O)Nc1cnc(N)c2c1cnn2C)C1COCc2c1cccc2C(F)(F)F` (stereo not drawn) [Example 148], for which the GI50 was in the range of 0.01 to 0.1 µM.
Same read-out and setting: with `CN1CCN(c2ccc3c(c2)COCC3N(C)C(=O)C(=O)Nc2cnc(N)c3c2cnn3C)CC1` (stereo not drawn) [Example 149] the figure was 0.01 to 0.1 µM.
With `Cc1c(-c2ccc3c(c2)COCC3N(C)C(=O)C(=O)Nc2cnc(N)c3c2cnn3C)cnn1C` (stereo not drawn) [Example 150], the GI50 is less than 0.01 µM.
Consider `CN(C(=O)C(=O)Nc1cnc(N)c2c1cnn2C)C1COCc2ncccc21` (stereo not drawn) [Example 151], for which the GI50 fell in the range of 0.01 to 0.1 µM.
The same measure, in the same setting: then `CN(C(=O)C(=O)Nc1cnc(N)c2c1cnn2C)C1COCc2cc(-c3cnn4c3CCC4)ccc21` (stereo not drawn) [Example 154], with less than 0.01 µM; and `CN(C(=O)C(=O)Nc1cnc(N)c2c1cnn2C)C1COCc2cc(Cl)c(Cl)cc21` (stereo not drawn) [Example 158], with less than 0.01 µM; and `COc1ncc(NC(=O)C(=O)N(C)C2COCc3cc(C4=CCOCC4)ccc32)cc1C(N)=O` (stereo not drawn) [Example 166], with 0.1 to 1 µM.
The same measure, in the same setting: then `CN(C(=O)C(=O)Nc1cnc(N)c2c1cnn2C)C1COc2cc(C3=CCCOC3)ccc21` (stereo not drawn) [Example 169], with 0.01 to 0.1 µM.
The same measure, in the same setting: with `Cc1ncc(-c2ccc3c(c2)OCC3N(C)C(=O)C(=O)Nc2cnc(N)c3c2cnn3C)s1` (stereo not drawn) [Example 170] the figure was less than 0.01 µM.

Staying with this experiment, now noted: HCT116^MTAP Deletion cells, 10 days incubation, CTG readout; read-out: HCT116^MTAP Deletion GI50.
As for `CC(C)C(C)N(Cc1ccc(C(F)(F)F)cn1)C(=O)C(=O)Nc1cnc(N)c2c1cnn2C` (stereo not drawn) [Example 110-P2], the GI50 was less than 0.01 µM.
Still for that read-out and setting: then `CN(C(=O)C(=O)Nc1cnc(N)c2c1cnn2C)C1COCc2cc(-c3cnn(C)c3)ccc21` (stereo not drawn) [Example 124-P2], with 0.01 to 0.1 µM; and `CCC(C)N(Cc1ccc(C2=CCN(C(=O)OC)CC2)cn1)C(=O)C(=O)Nc1cnc(N)c(C)c1` (stereo not drawn) [Example 125-P2], with less than 0.01 µM.
Turning to `CN(C(=O)C(=O)Nc1cnc(N)c2c1cnn2C)C1COCc2cc(C3=CCOCC3)ccc21` (stereo not drawn) [Example 132-P2], the GI50 fell in the range of 0.01 to 0.1 µM.
`CN(C(=O)C(=O)Nc1cnc(N)c2c1cnn2C)C1COCc2cc(-c3ccnn3C)ccc21` (stereo not drawn) [Example 137]: the GI50 is less than 0.01 µM.
As to `CN(C(=O)C(=O)Nc1cnc(N)c2c1cnn2C)C1COCc2c1ccc(F)c2F` (stereo not drawn) [Example 138], the GI50 was 0.01 to 0.1 µM.
Still for that read-out and setting: with `CN(C(=O)C(=O)Nc1cnc(N)c2c1cnn2C)C1COc2cc(-c3cnn(C)c3)ccc21` (stereo not drawn) [Example 140-P2] the figure was 0.01 to 0.1 µM; with `CN(C(=O)C(=O)Nc1cnc(N)c2c1cnn2C)C1COCc2c1ccc(F)c2F` (stereo not drawn) [Example 141-P1], 0.01 to 0.1 µM; with `CN(C(=O)C(=O)Nc1cnc(N)c2c1cnn2C)C1COCc2c1ccc(F)c2F` (stereo not drawn) [Example 141-P2], 0.1 to 1 µM.
For `CN(C(=O)C(=O)Nc1cnc(N)c2c1cnn2C)C1COc2nc(C(F)(F)F)ccc21` (stereo not drawn) [Example 159], the GI50 is 0.1 to 1 µM.
Still for that read-out and setting: with `CN1CC=C(c2ccc3c(c2)COCC3N(C)C(=O)C(=O)Nc2cnc(N)c3c2cnn3C)CC1` (stereo not drawn) [Example 160] the figure was 0.01 to 0.1 µM.
